# Test results as given in patent US11976057B2, “MrgX2 antagonists” (GlaxoSmithKline Intellectual Property Development Limited, priority 2020, dated 2024).
# Target: T1, human MRGPRX2 (Homo sapiens, UniProt Q96LB1)
# T1 sequence (Q96LB1 1-330): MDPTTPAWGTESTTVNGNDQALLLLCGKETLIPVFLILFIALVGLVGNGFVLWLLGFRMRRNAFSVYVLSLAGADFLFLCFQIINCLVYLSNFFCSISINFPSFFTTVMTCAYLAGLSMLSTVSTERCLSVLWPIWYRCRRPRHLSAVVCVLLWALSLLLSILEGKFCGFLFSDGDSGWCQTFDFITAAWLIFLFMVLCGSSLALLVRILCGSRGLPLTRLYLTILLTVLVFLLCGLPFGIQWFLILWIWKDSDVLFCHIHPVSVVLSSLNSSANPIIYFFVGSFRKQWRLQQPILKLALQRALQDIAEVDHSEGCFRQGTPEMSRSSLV
# Experiment: Ca2+ mobilization assay (FLIPR TETRA): inhibition of Cortistatin-14 mediated MRGPRX2 activation
row,IC50,Structure (SMILES)
1,100 to 3160 nM,C[C@H]1C[C@@H](c2ccc(=O)[nH]c2)CN([C@@H](C)C(=O)Nc2ccc(Cl)cn2)C1 [Example 172]
2,3160 to 31600 nM,C[C@@H]1C[C@@H](c2ccc(=O)[nH]c2)CN([C@@H](C)C(=O)Nc2ccc(Cl)cn2)C1 [Example 173]
3,3160 to 31600 nM,"C[C@@H](C(=O)Nc1ccc(Cl)cn1)N1CCC[C@@H](c2ccc(=O)n(C)c2)C1 [Example 176, (S)—N-(5-chloropyridin-2-yl)-2-((S)-3-(1-methyl-6-oxo-1,6-dihydropyridin-3-yl)piperidin-1-yl)propanamide]"
4,10 to 100 nM,"C[C@@H](C(=O)Nc1cnc(Oc2ccc(F)cc2F)cn1)N1CCC[C@@H](c2cc[n+]([O-])cc2)C1 [Example 181, 4-((S)-1-((S)-1-((5-(2,4-difluorophenoxy)pyrazin-2-yl)amino)-1-oxopropan-2-yl)piperidin-3-yl)pyridine 1-oxide]"
5,≤ 10 nM,"C[C@@H](C(=O)Nc1ccc(Oc2ccc(F)cc2F)cn1)N1CCC[C@@H](c2cc[n+]([O-])cc2)C1 [Example 182, 4-((S)-1-((S)-1-((5-(2,4-difluorophenoxy)pyridin-2-yl)amino)-1-oxopropan-2-yl)piperidin-3-yl)pyridine 1-oxide]"
6,3160 to 31600 nM,"C[C@@H](C(=O)Nc1ccc(F)cn1)N1CCC(F)(F)C(c2cc(N)c(=O)n(CC(F)(F)F)c2)C1 (stereo partly drawn) [Example 187, (2S)-2-(3-(5-amino-6-oxo-1-(2,2,2-trifluoroethyl)-1,6-dihydropyridin-3-yl)-4,4-difluoropiperidin-1-yl)-N-(5-fluoropyridin-2-yl)propanamide]"
7,100 to 3160 nM,"CCn1cc(C2CN([C@@H](C)C(=O)Nc3ccc(F)cn3)CCC2(F)F)ccc1=O (stereo partly drawn) [Example 188, (2S)-2-(3-(1-ethyl-6-oxo-1,6-dihydropyridin-3-yl)-4,4-difluoropiperidin-1-yl)-N-(5-fluoropyridin-2-yl)propanamide]"
8,100 to 3160 nM,"C[C@@H](C(=O)Nc1ccc(F)cn1)N1CCC(F)(F)C(c2ccc(=O)n(CCS(C)(=O)=O)c2)C1 (stereo partly drawn) [Example 190, (2S)-2-(4,4-difluoro-3-(1-(2-(methylsulfonyl)ethyl)-6-oxo-1,6-dihydropyridin-3-yl)piperidin-1-yl)-N-(5-fluoropyridin-2-yl)propanamide]"

# Second part, the compound before the results:
row,Structure (SMILES),IC50
1,"C[C@@H](C(=O)Nc1ccc(OCC2CC2)nn1)N1CCC(F)(F)[C@@H](c2ccc(=O)[nH]n2)C1 [Example 146, (S)-N-(6-(cyclopropylmethoxy)pyridazin-3-yl)-2-((R)-4,4-difluoro-3-(6-oxo-1,6-dihydropyridazin-3-yl)piperidin-1-yl)propanamide]",10 to 100 nM
2,C[C@@H](C(=O)Nc1ccc(C2CC2)cn1)N1CCC(F)(F)[C@@H](c2ccc(=O)[nH]n2)C1 [Example 147],100 to 3160 nM
3,"C[C@@H](C(=O)Nc1ccc(F)cn1)N1CCC(F)(F)[C@@H](c2ccc(=O)[nH]n2)C1 [Example 148, (S)-2-((R)-4,4-difluoro-3-(6-oxo-1,6-dihydropyridazin-3-yl)piperidin-1-yl)-N-(5-fluoropyridin-2-yl)propanamide]",100 to 3160 nM
4,"C[C@@H](C(=O)Nc1ccc(Cl)cn1)N1CCC(F)(F)[C@@H](c2ccc(=O)[nH]n2)C1 [Example 149, (S)-N-(5-chloropyridin-2-yl)-2-((R)-4,4-difluoro-3-(6-oxo-1,6-dihydropyridazin-3-yl)piperidin-1-yl)propanamide]",100 to 3160 nM
5,"C[C@@H](C(=O)Nc1ccc(OCC2CC2)cn1)N1CCC(F)(F)[C@@H](c2ccc(=O)n(C)c2)C1 [Example 150, (S)—N-(5-(cyclopropylmethoxy)pyridin-2-yl)-2-((S)-4,4-difluoro-3-(1-methyl-6-oxo-1,6-dihydropyridin-3-yl)piperidin-1-yl)propanamide]",10 to 100 nM
6,"C[C@@H](C(=O)Nc1ccc(F)cn1)N1CCC(F)(F)[C@@H](c2c[nH]c(=O)c(CC(F)(F)F)c2)C1 [Example 151, (S)-2-((S)-4,4-difluoro-3-(6-oxo-5-(2,2,2-trifluoroethyl)-1,6-dihydropyridin-3-yl)piperidin-1-yl)-N-(5-fluoropyridin-2-yl)propanamide]",10 to 100 nM
7,"C[C@@H](C(=O)Nc1ccc(OCC2CC2)cn1)N1CCC(F)(F)[C@@H](c2c[nH]c(=O)c(C(C)(C)O)c2)C1 [Example 152, (S)—N-(5-(cyclopropylmethoxy)pyridin-2-yl)-2-((S)-4,4-difluoro-3-(5-(2-hydroxypropan-2-yl)-6-oxo-1,6-dihydropyridin-3-yl)piperidin-1-yl)propanamide]",10 to 100 nM
8,"C[C@@H](C(=O)Nc1ccc(F)cn1)N1CCC(F)(F)[C@@H](c2c[nH]c(=O)c(CO)c2)C1 [Example 153, (S)-2-((S)-4,4-difluoro-3-(5-(hydroxymethyl)-6-oxo-1,6-dihydropyridin-3-yl)piperidin-1-yl)-N-(5-fluoropyridin-2-yl)propanamide]",100 to 3160 nM
9,"C[C@@H](C(=O)Nc1ccc(OCC2CC2)nn1)N1CCC(F)(F)C(c2c[nH]c(=O)c(CO)c2)C1 (stereo partly drawn) [Example 154, (S)-N-(6-(cyclopropylmethoxy)pyridazin-3-yl)-2-(4,4-difluoro-3-(5-(hydroxymethyl)-6-oxo-1,6-dihydropyridin-3-yl)piperidin-1-yl)propanamide]",100 to 3160 nM
10,"CC(C(=O)Nc1ccc(Cl)cn1)N1CCC(F)(F)C(c2c[nH]c(=O)c(CO)c2)C1 (stereo not shown) [Example 155, N-(5-chloropyridin-2-yl)-2-(4,4-difluoro-3-(5-(hydroxymethyl)-6-oxo-1,6-dihydropyridin-3-yl)piperidin-1-yl)propanamide]",100 to 3160 nM
11,C[C@@H](C(=O)Nc1ccc(Oc2ccc(F)cc2)cn1)N1CCC(F)(F)[C@@H](c2c[nH]c(=O)c(CO)c2)C1 [Example 156],≤ 10 nM
12,"C[C@@H](C(=O)Nc1ccc(Oc2ccc(F)cn2)cn1)N1CCC(F)(F)[C@@H](c2c[nH]c(=O)c(CO)c2)C1 [Example 157, (S)-2-((S)-4,4-difluoro-3-(5-(hydroxymethyl)-6-oxo-1,6-dihydropyridin-3-yl)piperidin-1-yl)-N-(5-((5-fluoropyridin-2-yl)oxy)pyridin-2-yl)propanamide]",10 to 100 nM
13,"C[C@@H](C(=O)Nc1ccc(Cl)cn1)N1CCC[C@@H](c2ccc(=O)[nH]c2)C1 [Example 158, (S)—N-(5-chloropyridin-2-yl)-2-((S)-3-(6-oxo-1,6-dihydropyridin-3-yl)piperidin-1-yl)propanamide]",100 to 3160 nM
14,"C[C@H]1C[C@@H](c2ccc(=O)[nH]n2)CN([C@@H](C)C(=O)Nc2ccc(F)cn2)C1 [Example 162, (S)—N-(5-fluoropyridin-2-yl)-2-((3S,5R)-3-methyl-5-(6-oxo-1,6-dihydropyridazin-3-yl)piperidin-1-yl)propanamide]",100 to 3160 nM
15,"C[C@@H](C(=O)Nc1ccc(OCC2CC2)cn1)N1CCC(F)(F)[C@@](C)(c2ccc(=O)[nH]c2)C1 [Example 163, (S)—N-(5-(cyclopropylmethoxy)pyridin-2-yl)-2-((S)-4,4-difluoro-3-methyl-3-(6-oxo-1,6-dihydropyridin-3-yl)piperidin-1-yl)propanamide]",100 to 3160 nM
16,"CC(C(=O)Nc1ccc(OCC2CC2)cn1)N1CC(c2ccc(=O)[nH]c2)C(F)(F)C1 (stereo not shown) [Example 164, N-(5-(cyclopropylmethoxy)pyridin-2-yl)-2-(3,3-difluoro-4-(6-oxo-1,6-dihydropyridin-3-yl)pyrrolidin-1-yl)propanamide]",100 to 3160 nM
17,C[C@@H](C(=O)Nc1ccc(Cl)cn1)N1CCC[C@@H](c2c[nH]c(=O)c(N)c2)C1 [Example 170],100 to 3160 nM
